Test results from US10317417B2, “Buccal cell diagnosis of arrhythmogenic cardiomyopathy (ACM)” (Beth Israel Deaconess Medical Center, Inc., priority 2015, dated 2019).

System: cultured buccal mucosa cells from ACM patients and gene carriers
Assay: Immunostaining of cultured buccal mucosa cells after incubation with SB216763
Type: cell-based, human
Set-up: dose or concentration left out as unconfirmed
Conditions: cultured buccal mucosa cells from ACM patients and unaffected gene carriers, confocal microscopy
Experimental: The oral cavity was first rinsed thoroughly with antiseptic mouthwash. Buccal mucosa cells were collected with a sterile toothbrush which was lightly scraped on the inside of both cheeks for ˜2 minutes. The oral cavity was washed with 15 ml of sterile saline which was collected in a centrifuge tube. The toothbrush itself was washed in an additional 10 ml of saline. The same process was repeated one or more times. The resultant cell suspension was centrifuged at 3000 g for 5 minutes. The pellet was washed once in sterile PBS, re-centrifuged and subsequently re-suspended in 20 ml of PBS supplemented with 5% penicillin/streptomycin and 7 mM fungizone for 30 minutes. The cells were then washed twice in PBS, reconstituted in KGM™-CD chemically defined keratinocyte growth medium (LONZA) and seeded on matrigel-coated chamber slides, where they were maintained at 37° C., 5% CO2 for up to 7 days. Selected cultures were incubated with SB216763 ([…]) for 24 hours prior to immunostaining. Buccal mucosa cultures were washed in PBS, fixed in 4% paraformaldehyde and, after being washed 3 additional times in PBS, were immunostained as described above with mouse monoclonal anti-plakoglobin (Sigma) or mouse monoclonal anti-Cx43 (Millipore) primary antibodies. All immunostained preparations were imaged at 40× using a ZEISS inverted confocal microscope.

Q: `Cn1cc(C2=C(c3ccc(Cl)cc3Cl)C(=O)NC2=O)c2ccccc21` [SB216763] was tested. Which Cx43 signal distribution did it give?
A: normalized

Q: And the plakoglobin signal distribution?
A: normalized
